Among the test systems are OVCAR-4; OVCAR-5; EKVX; SNB-19; ACHN; UACC-257; SF-295; RPMI-8226; OVCAR-3; NCI-H226; M14; SK-OV-3; HOP-92; IGROV-1; UACC-62; LOX IMVI; NCI-H522; UO-31.
Common to all, as to experiment: inhibition of tumour cell growth, NCI panel, 48 h

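Briefly, cells in 96-well plates were exposed to five compound concentrations for 48 h, and endpoints were estimated by linear interpolation. GI50 = concentration required for 50% inhibition of growth.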 The source made the active and inactive calls. Cut-off read from the data, not from the text of the source: active = GI50 up to about 1.1 µM and inactive = higher.

As to `COc1ccc2c(c1O)C13CCN(C)C(C2)C1CCC1(C3)OCCO1` (stereo unspecified), the GI50 with OVCAR-4, in the test on OVCAR-5, in the test with EKVX, with SNB-19, with ACHN and in the test with UACC-257 was > 100 µM (inactive) in each case. In addition, the GI50 in the test on SF-295, in the test on RPMI-8226, in the test with OVCAR-3, in the test on NCI-H226, in the test with M14 and in the test on SK-OV-3 was > 100 µM (inactive) in each case. In addition, the GI50 with HOP-92, with IGROV-1, in the test on UACC-62, in the test with LOX IMVI, in the test on NCI-H522 and with UO-31 was > 100 µM (inactive) throughout.

With `COc1cc(OCCN(C)C)c2[nH]c(C(=O)N3CC(CCl)c4c3cc(N)c3ccccc43)cc2c1` (stereo unspecified), the GI50 in the test with OVCAR-4 is < 0.018 µM (active); in the test on OVCAR-5, < 0.01 µM (active); in the test on EKVX, < 0.01 µM (active); in the test with SNB-19, < 0.01 µM (active); in the test with ACHN it was < 0.01 µM (active); with UACC-257, < 0.01 µM (active). Besides, the GI50 was < 0.01 µM (active) in the test on SF-295; < 0.01 µM (active) in the test on RPMI-8226; < 0.01 µM (active) in the test with OVCAR-3; < 0.01 µM (active) in the test with NCI-H226; < 0.01 µM (active) with M14; 0.0148 µM (active) in the test with SK-OV-3. Besides, the GI50 with HOP-92, in the test with IGROV-1, in the test on UACC-62, in the test with LOX IMVI, in the test on NCI-H522 and in the test on UO-31 was < 0.01 µM (active) throughout.

Regarding `c1ccc2c(c1)CC1=C(O2)c2ccccc2OC1`, the GI50 in the test on OVCAR-4 is 21.1 µM (inactive); with OVCAR-5, > 100 µM (inactive); with EKVX it was 16.1 µM (inactive); in the test with ACHN, 34.2 µM (inactive); in the test on UACC-257, 28.2 µM (inactive); in the test on SF-295, 39.1 µM (inactive). For the same compound, the GI50 with RPMI-8226 is 21.8 µM (inactive); in the test with OVCAR-3, 21.3 µM (inactive); with NCI-H226, 50.2 µM (inactive); in the test with M14, 38.2 µM (inactive); with SK-OV-3, > 100 µM (inactive); in the test on HOP-92, 21.2 µM (inactive). Also, the GI50 in the test with IGROV-1 is 23.1 µM (inactive); with UACC-62, 26.2 µM (inactive); in the test on LOX IMVI it was 17.9 µM (inactive); with NCI-H522, 19.5 µM (inactive); in the test with UO-31, 41.2 µM (inactive).

For `CC1(C)CC[C@]2(C)CC=C3[C@]4(C)CC[C@H]5C(C)(C)C(=O)CC[C@]5(C)[C@H]4CC[C@@]3(C)[C@H]2C1`, the GI50 in the test with OVCAR-4, in the test on OVCAR-5, in the test on EKVX, in the test with SNB-19, in the test on ACHN and in the test on UACC-257 was > 100 µM (inactive) throughout. For the same compound, the GI50 with SF-295, in the test with RPMI-8226, in the test with OVCAR-3, with NCI-H226, in the test on M14 and in the test with SK-OV-3 was > 100 µM (inactive) each time. The GI50 with HOP-92, in the test with IGROV-1, with UACC-62, with LOX IMVI, in the test with NCI-H522 and in the test with UO-31 was > 100 µM (inactive) in each case.
